Patent US11051515B2, “3-acyl-benzamides and their use as herbicides” (Bayer Aktiengesellschaft, priority 2017, dated 2021)

Columns and labels:
STEME [1] = assay: Pre-emergence action against STEME; type: in vivo, Stellaria media; settings: for Pre-emergence action against STEME: Dosage 320 g/ha
Method in brief: (§1)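 Seeds sown in sandy loam in wood-fiber pots and covered with soil. Greenhouse growth; visual damage scored after 3 weeks versus untreated controls (100% = dead, 0% = like control).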

ECHCG [2] = assay: Post-emergence action against ECHCG; type: in vivo, Echinochloa crus-galli; settings: post-emergence, dosage 80 g/ha, visual assessment about 3 weeks after treatment vs untreated controls
Method in brief: (§2)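 Weeds grown in sandy loam in greenhouse, treated at one-leaf stage (2–3 weeks after sowing) with WP or EC formulations sprayed as aqueous suspension/emulsion at 600 to […] water with 0.2% wetting agent. Visual rating after about 3 weeks versus untreated controls, as % herbicidal action (100% = plants dead, 0% = like control).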

ECHCG [3] = assay: Pre-emergence action against ECHCG; type: in vivo, Echinochloa crus-galli; settings: pre-emergence, dosage 320 g/ha, scored visually after 3 weeks vs untreated controls
Method in brief: as §1

ABUTH [4] = assay: Post-emergence action against ABUTH; type: in vivo, Abutilon theophrasti; settings: for Post-emergence action against ABUTH (herbicidal action in percent): dosage 80 g/ha, visual assessment about 3 weeks after treatment vs untreated controls
Method in brief: as §2

VIOTR [5] = assay: Post-emergence action against VIOTR; type: in vivo, Viola tricolor; settings: for Post-emergence action against VIOTR: dosage 80 g/ha
Method in brief: as §2

VERPE [6] = assay: Pre-emergence action against VERPE; type: in vivo, Veronica persica; settings: Dosage 320 g/ha, pre-emergence
Method in brief: as §1

ALOMY = assay: Pre-emergence action against ALOMY; type: in vivo, Alopecurus myosuroides
Method in brief: as §1

MATIN [7] = assay: Post-emergence action against MATIN; type: in vivo, Matricaria inodora; settings: for Post-emergence action against MATIN (herbicidal action in percent): dosage 80 g/ha, visual assessment about 3 weeks after treatment vs untreated controls
Method in brief: as §2

VIOTR [8] = assay: Pre-emergence action against VIOTR; type: in vivo, Viola tricolor; settings: for Pre-emergence action against VIOTR: Dosage 320 g/ha
Method in brief: as §1

SETVI [9] = assay: Pre-emergence action against SETVI; type: in vivo, Setaria viridis; settings: for SETVI (Table B8, pre-emergence herbicidal activity): dosage 320 g/ha, scored visually after 3 weeks vs untreated controls
Method in brief: as §1

STEME [10] = assay: Post-emergence action against STEME; type: in vivo, Stellaria media; settings: for Post-emergence action against STEME: dosage 80 g/ha
Method in brief: as §2

AMARE [11] = assay: Pre-emergence action against AMARE; type: in vivo, Amaranthus retroflexus; settings: pre-emergence, dosage 320 g/ha, scored visually after 3 weeks vs untreated controls
Method in brief: as §1

CYPES [12] = assay: Pre-emergence action against CYPES; type: in vivo, Cyperus esculentus; settings: for Herbicidal efficacy against CYPES: 80 g of a.i./ha; for Pre-emergence action against CYPES (herbicidal activity): dosage 320 g/ha, scored visually after 3 weeks vs untreated controls
Method in brief: as §1

VERPE [13] = assay: Post-emergence action against VERPE; type: in vivo, Veronica persica; settings: dosage 80 g/ha
Method in brief: as §2

ABUTH [14] = assay: Pre-emergence action against ABUTH; type: in vivo, Abutilon theophrasti; settings: pre-emergence, dosage 320 g/ha, scored visually after 3 weeks vs untreated controls
Method in brief: as §1

MATIN [15] = assay: Pre-emergence action against MATIN; type: in vivo, Matricaria inodora; settings: for Pre-emergence action against MATIN: Dosage 320 g/ha
Method in brief: as §1

POLCO [16] = assay: Pre-emergence action against POLCO; type: in vivo, Polygonum convolvulus; settings: Dosage 320 g/ha, pre-emergence
Method in brief: as §1

AMARE [17] = assay: Post-emergence action against AMARE; type: in vivo, Amaranthus retroflexus; settings: for Post-emergence action against AMARE (herbicidal action in percent): dosage 80 g/ha, visual assessment about 3 weeks after treatment vs untreated controls
Method in brief: as §2

AVEFA [18] = assay: Post-emergence action against AVEFA; type: in vivo, Avena fatua; settings: post-emergence, dosage 80 g/ha, visual assessment about 3 weeks after treatment vs untreated controls
Procedure: (§3) Seeds of monocotyledonous and dicotyledonous weed and crop plants are laid out in sandy loam soil in wood-fiber pots, covered with soil and cultivated in a greenhouse under good growth conditions. 2 to 3 weeks after sowing, the test plants are treated at the one-leaf stage. The compounds of the invention, formulated in the form of wettable powders (WP) or as emulsion concentrates (EC), are then sprayed onto the green parts of the plants in the form of an aqueous suspension or emulsion at a water application rate equating to […], with addition of 0.2% wetting agent. After the test plants have been left to stand in the greenhouse under optimal growth conditions for about 3 weeks, the action of the preparations is assessed visually in comparison to untreated controls (herbicidal action in percent (%): 100% activity=the plants have died, 0% activity=like control plants). […] At the same time, inventive compounds leave Gramineae crops such as barley, wheat, rye, millet/Sorghum, corn or rice virtually undamaged when applied post-emergence, even at high active ingredient dosages. In addition, some substances are also harmless to dicotyledonous crops such as soya, cotton, oilseed rape, sugar beet or potatoes. Some of the compounds according to the invention have high selectivity and are therefore suitable for controlling unwanted vegetation in agricultural crops by the post-emergence method. The data of Tables B18 to B34 below illustrate, in an exemplary manner, the […] herbicidal action of the compounds according to the invention, the herbicidal activity being stated in percent.

PHBPU [19] = assay: Post-emergence action against PHBPU; type: in vivo, Pharbitis purpurea; settings: post-emergence, dosage 80 g/ha
Method in brief: as §2

POLCO [20] = assay: Post-emergence action against POLCO; type: in vivo, Polygonum convolvulus; settings: post-emergence, dosage 80 g/ha
Procedure: as §3

SETVI [21] = assay: Post-emergence action against SETVI; type: in vivo, Setaria viridis; settings: for Post-emergence action against SETVI (herbicidal action in percent): dosage 80 g/ha, visual assessment about 3 weeks after treatment vs untreated controls
Method in brief: as §2

CYPES [22] = assay: Post-emergence action against CYPES; type: in vivo, Cyperus esculentus; settings: post-emergence, dosage 80 g/ha, visual assessment about 3 weeks after treatment vs untreated controls
Method in brief: as §2

PHBPU [23] = assay: Pre-emergence action against PHBPU; type: in vivo, Pharbitis purpurea; settings: Dosage 320 g/ha, pre-emergence
Method in brief: as §1

AVEFA [24] = assay: Pre-emergence action against AVEFA; type: in vivo, Avena fatua; settings: dosage 320 g/ha, scored visually after 3 weeks vs untreated controls
Method in brief: as §1

[25] = Table V10, pre-emergence, 80 g of a.i./ha
[26] = Table V19, post-emergence, 5 g of a.i./ha
[27] = Table V21, post-emergence, 5 g of a.i./ha
[28] = Table V17, post-emergence, 5 g of a.i./ha

SMILES	Pre-emergence action against STEME (STEME [1]) [%]	Post-emergence action against ECHCG (herbicidal action in percent) (ECHCG [2]) [%]	Pre-emergence action against ECHCG (herbicidal activity) (ECHCG [3]) [%]	Post-emergence action against ABUTH (herbicidal action in percent) (ABUTH [4]) [%]	Post-emergence action against VIOTR (VIOTR [5])	Pre-emergence action against VERPE (VERPE [6]) [%]	Post-emergence action against MATIN (herbicidal action in percent) (MATIN [7]) [%]	Pre-emergence action against VIOTR (VIOTR [8]) [%]	SETVI (Table B8, pre-emergence herbicidal activity) (SETVI [9]) [%]	Post-emergence action against STEME (STEME [10])	Pre-emergence action against AMARE (herbicidal activity) (AMARE [11]) [%]	Pre-emergence action against CYPES (herbicidal activity) (CYPES [12]) [%]	Post-emergence action against VERPE (VERPE [13])	Pre-emergence action against ABUTH (herbicidal activity) (ABUTH [14]) [%]	Pre-emergence action against MATIN (MATIN [15]) [%]	Post-emergence action against AMARE (herbicidal action in percent) (AMARE [17]) [%]	Post-emergence action against AVEFA (herbicidal action in percent) (AVEFA [18]) [%]	Post-emergence action against PHBPU (PHBPU [19])	Post-emergence action against SETVI (herbicidal action in percent) (SETVI [21]) [%]	further results
CCn1nnnc1NC(=O)c1ccc(S(C)(=O)=O)c(C(C)=O)c1C [2-7]	90	100	100	100	100	100	100	100	100	100	100	100	100	100	100	100	100	80	100	Herbicidal efficacy against STEME (STEME [1]; [25]): 90; ABUTH (ABUTH [4]; [26]): 100; Herbicidal efficacy against ABUTH (ABUTH [4]; [27]): 100; Herbicidal efficacy against VIOTR (VIOTR [5]; [28]): 100; VIOTR (VIOTR [5]; [26]): 100; Herbicidal efficacy against ALOMY (ALOMY; [25]): 70; Pre-emergence action against ALOMY (herbicidal activity in percent) (ALOMY; dosage 320 g/ha, pre-emergence, scored visually after 3 weeks vs untreated controls, 100% = plants have died, 0% = like control plants): 80%; Herbicidal efficacy against MATIN (MATIN [7]; [28]): 100; MATIN (MATIN [7]; [26]): 100; Herbicidal efficacy against VIOTR (VIOTR [8]; Table V12, pre-emergence, 20 g of a.i./ha): 90; Herbicidal efficacy against SETVI (SETVI [9]; [25]): 80; STEME (STEME [10]; [26]): 100; Herbicidal efficacy against STEME (STEME [10]; [27]): 100; Herbicidal efficacy against CYPES (CYPES [12]; Table V10, pre-emergence): 90; Herbicidal efficacy against CYPES (CYPES [12]; Table V11, pre-emergence): 90; Herbicidal efficacy against MATIN (MATIN [15]; [25]): 100; Pre-emergence action against POLCO (POLCO [16]): 90%; Herbicidal efficacy against AMARE (AMARE [17]; [27]): 100; Post-emergence action against POLCO (POLCO [20]): 100; SETVI (SETVI [21]; [26]): 90
CCn1nnnc1NC(=O)c1ccc(S(C)(=O)=O)c(C(C)=O)c1Cl [2-127]	90	100	100	100	100	100	90	100	90	100	100	90	100	100	100	100	90	100	90	Post-emergence action against CYPES (herbicidal action in percent) (CYPES [22]): 90%; Pre-emergence action against PHBPU (PHBPU [23]): 90%; Pre-emergence action against AVEFA (herbicidal activity) (AVEFA [24]): 90%
